Experimental data reported in patent US10273217B2, “Triazole derivatives” (Hoffmann-La Roche Inc., priority 2015, dated 2019).

Tests used:
human EAAT3 = biological target: T1, human EAAT3 (Homo sapiens, UniProt P43005); assay: FLIPR Membrane Potential (FMP) assay, antagonist potency at human EAAT3; format: cell-based; conditions: HEK-293 cells stably expressing human EAAT3; L-glutamate as agonist at EC80; Kb from IC50 by Cheng-Prusoff equation
T1 construct: expressed in transfected cells
T1 sequence (P43005 1-524): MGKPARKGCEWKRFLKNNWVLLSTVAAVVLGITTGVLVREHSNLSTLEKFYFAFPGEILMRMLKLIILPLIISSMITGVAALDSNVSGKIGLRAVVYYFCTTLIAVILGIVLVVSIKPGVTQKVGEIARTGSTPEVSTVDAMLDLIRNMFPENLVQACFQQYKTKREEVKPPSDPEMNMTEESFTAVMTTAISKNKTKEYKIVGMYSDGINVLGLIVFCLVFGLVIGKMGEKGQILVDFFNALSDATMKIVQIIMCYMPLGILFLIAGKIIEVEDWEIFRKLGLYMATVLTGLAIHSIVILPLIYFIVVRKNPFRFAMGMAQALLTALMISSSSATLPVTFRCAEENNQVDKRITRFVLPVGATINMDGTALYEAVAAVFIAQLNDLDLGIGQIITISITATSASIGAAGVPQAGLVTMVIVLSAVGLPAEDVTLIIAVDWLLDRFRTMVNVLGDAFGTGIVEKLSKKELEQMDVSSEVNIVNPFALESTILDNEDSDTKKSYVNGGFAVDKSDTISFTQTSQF
Protocol: The FLIPR Membrane Potential (FMP) Assay
HEK-293 cells stably expressing human EAAT3 were seeded at 55 000 cells/well in growth medium (DMEM glutamate free (Invitrogen 11960-044), 1% Pen Strep (10 ml/l GIBCO BRL N°15140-023), 10% FCS non dialysed heat inactivated, 5 mg/l puromycin) in poly-D-lysine treated 96-well black microtiter plates with clear-bottom. After 24 h, the growth medium was removed and 100 μl/well of Krebs buffer (140 mM NaCl, 4.7 mM KCl, 2.5 mM CaCl2, 1.2 mM MgCl2, 11 mM HEPES, 10 mM D-glucose, pH=7.4) added. The cells were then loaded by adding 100 μl/well FMP assay dye (FLIPR Membrane Potential assay reagent, Molecular Devices). The 96-well plates were then incubated at 37° C. for 1 h. The depolarization of the cells will cause more dye to enter in the cells, where it will bind to intracellular proteins and lipids and cause an increase in the fluorescence signal. Antagonist potency at human EAAT3 was determined by using L-glutamate as agonist at a concentration which gives 80% of the maximum response. The antagonists were applied 15 min before the application of the agonist L-glutamate. The assays were performed at room temperature and measurements done by using a Fluorometric Imaging Plate Reader (FLIPR, Molecular Devices) and filter #2. Responses were measured as peak increase in fluorescence minus basal (i.e. fluorescence without addition of L-glutamate). Kb was determined using the Cheng-Prusoff equation Kb=IC50/[1+(A/EC50)], where IC50 is the concentration of the antagonist producing 50% inhibition, A is the concentration of the agonist against which the IC50 is being determined (at EC80) and EC50 is the concentration of the agonist producing 50% […].

SMILES	Kb (human EAAT3) [nM]	melting point [°C]
CC(C)c1nncn1-c1cc(C(=O)NC(C)(C)C)cc(-c2ccc(C(F)(F)F)cc2)c1 [Example 18, N-tert-Butyl-3-(3-propan-2-yl-1,2,4-triazol-4-yl)-5-[4-(trifluoromethyl)-phenyl]-benzamide]	130	126
CCC(C)(C)NC(=O)c1cc(-c2ccc(Cl)cc2)cc(-n2cnnc2C(C)C)c1 [Example 25, 3-(4-Chlorophenyl)-N-(2-methylbutan-2-yl)-5-(3-propan-2-yl-1,2,4-triazol-4-yl)-benzamide]	120	103
CC(C)(C)NC(=O)c1cc(-c2ccc(Cl)cc2)cc(-n2cnnc2C(C)(C)O)c1 [Example 27, N-tert-Butyl-3-(4-chlorophenyl)-5-[3-(2-hydroxypropan-2-yl)-1,2,4-triazol-4-yl]-benzamide]	64	163
CC(C)c1nncn1-c1cc(C(=O)NC(C)(C)C)cc(-c2ccc(F)c(F)c2)c1 [Example 28, N-tert-Butyl-3-(3,4-difluorophenyl)-5-(3-propan-2-yl-1,2,4-triazol-4-yl)-benzamide]	160	115
CCC(C)(C)NC(=O)c1cc(-c2ccc(C(F)(F)F)cc2)cc(-n2cnnc2C(C)C)c1 [Example 23, N-(2-Methylbutan-2-yl)-3-(3-propan-2-yl-1,2,4-triazol-4-yl)-5-[4-(trifluoromethyl)-phenyl]-benzamide]	94	104
CC(C)(C)NC(=O)c1cc(-c2ccc(Cl)cc2)cc(-n2cnnc2C(C)(C)C)c1 [Example 9, N-tert-Butyl-3-(3-tert-butyl-1,2,4-triazol-4-yl)-5-(4-chlorophenyl)-benzamide]	180	292.5
CC(C)(NC(=O)c1cc(-c2ccc(F)cc2)cc(-n2cnnc2)c1)C1CC1 [Example 3, N-(2-Cyclopropylpropan-2-yl)-3-(4-fluorophenyl)-5-(1,2,4-triazol-4-yl)-benzamide]	390	135.5
CC(C)(NC(=O)c1cc(-c2ccc(Cl)cc2)cc(-n2cnnc2CO)c1)C1CC1 [Example 37, 3-(4-Chlorophenyl)-N-(2-cyclopropyl-propan-2-yl)-5-[3-(hydroxymethyl)-1,2,4-triazol-4-yl]-benzamide]	150	120
CC(C)(C)c1nncn1-c1cc(C(=O)NC(C)(C)C2CC2)cc(-c2ccc(C(F)(F)F)cc2)c1 [Example 11, 3-(3-tert-Butyl-1,2,4-triazol-4-yl)-N-(2-cyclopropylpropan-2-yl)-5-[4-(trifluoromethyl)-phenyl]-benzamide]	180	242.5
Cc1nncn1-c1cc(C(=O)NC(C)(C)C)cc(-c2ccc(C(F)(F)F)cc2)c1 [Example 7, N-tert-Butyl-3-(3-methyl-1,2,4-triazol-4-yl)-5-[4-(trifluoromethyl)-phenyl]-benzamide]	130	225.5
CC(C)c1nncn1-c1cc(C(=O)NC(C)(C)C)cc(-c2ccc(F)cc2)c1 [Example 14, N-tert-Butyl-3-(4-fluorophenyl)-5-(3-propan-2-yl-1,2,4-triazol-4-yl)-benzamide]	75	240.5
CC(C)c1nncn1-c1cc(C(=O)NC(C)(C)C2CC2)cc(-c2ccc(Cl)cc2)c1 [Example 17, 3-(4-Chlorophenyl)-N-(2-cyclopropyl-propan-2-yl)-5-(3-propan-2-yl-1,2,4-triazol-4-yl)-benzamide]	190	105
CC(C)(NC(=O)c1cc(-c2ccc(F)cc2)cc(-n2cnnc2)c1)C(F)(F)F [Example 4, 3-(4-Fluorophenyl)-5-(1,2,4-triazol-4-yl)-N-(1,1,1-trifluoro-2-methylpropan-2-yl)-benzamide]	250	147
CC(C)c1nncn1-c1cc(C(=O)NC(C)(C)CO)cc(-c2ccc(C(F)(F)F)cc2)c1 [Example 22, N-(1-hydroxy-2-methylpropan-2-yl)-3-(3-propan-2-yl-1,2,4-triazol-4-yl)-5-[4-(trifluoromethyl)-phenyl]-benzamide]	330	214
Cc1cc(-c2cc(C(=O)NC(C)(C)C)cc(-n3cnnc3C(C)C)c2)ccc1F [Example 31, N-tert-Butyl-3-(4-fluoro-3-methyl-phenyl)-5-(3-propan-2-yl-1,2,4-triazol-4-yl)-benzamide]	98	106
CC(C)c1nncn1-c1cc(C(=O)NC(C)(C)C2CC2)cc(-c2ccc(F)cc2)c1 [Example 16, N-(2-Cyclopropylpropan-2-yl)-3-(4-fluorophenyl)-5-(3-propan-2-yl-1,2,4-triazol-4-yl)-benzamide]	100	101
CC1(NC(=O)c2cc(-c3ccc(Cl)cc3)cc(-n3cnnc3CO)c2)CCS(=O)(=O)C1 (racemic) [Example 36, (RS)-3-(4-Chlorophenyl)-5-[3-(hydroxymethyl)-1,2,4-triazol-4-yl]-N-(3-methyl-1,1-dioxothiolan-3-yl)-benzamide]	1570	161.5
CC(C)(C)c1nncn1-c1cc(C(=O)NC(C)(C)C2CC2)cc(-c2ccc(Cl)cc2)c1 [Example 13, 3-(3-tert-Butyl-1,2,4-triazol-4-yl)-5-(4-chlorophenyl)-N-(2-cyclopropylpropan-2-yl)-benzamide]	290	136.5
CCC(C)(C)NC(=O)c1cc(-c2ccc(F)cc2)cc(-n2cnnc2)c1 [Example 1, 3-(4-Fluorophenyl)-N-(2-methylbutan-2-yl)-5-(1,2,4-triazol-4-yl)-benzamide]	88	212
CC(C)(C)c1nncn1-c1cc(C(=O)NC(C)(C)C2CC2)cc(-c2ccc(F)cc2)c1 [Example 12, 3-(3-tert-Butyl-1,2,4-triazol-4-yl)-N-(2-cyclopropylpropan-2-yl)-5-(4-fluorophenyl)-benzamide]	150	111
CC(C)c1nncn1-c1cc(C(=O)NC(C)(C)CO)cc(-c2ccc(F)cc2)c1 [Example 20, 3-(4-Fluorophenyl)-N-(1-hydroxy-2-methylpropan-2-yl)-5-(3-propan-2-yl-1,2,4-triazol-4-yl)-benzamide]	390	171.5
CC(C)c1nncn1-c1cc(C(=O)NC(C)(C)C)cc(-c2ccc(Cl)cc2)c1 [Example 15, N-tert-Butyl-3-(4-chlorophenyl)-5-(3-propan-2-yl-1,2,4-triazol-4-yl)-benzamide]	75	239.5
Cc1ccc(-c2cc(C(=O)NC(C)(C)C)cc(-n3cnnc3C(C)C)c2)cc1F [Example 32, N-tert-Butyl-3-(3-fluoro-4-methyl-phenyl)-5-(3-propan-2-yl-1,2,4-triazol-4-yl)-benzamide]	120	109
CC(C)c1nncn1-c1cc(C(=O)NC(C)(C)C)cc(-c2ccc(C3CC3)cc2)c1 [Example 35, N-tert-Butyl-3-(4-cyclopropyl-phenyl)-5-(3-propan-2-yl-1,2,4-triazol-4-yl)-benzamide]	130	120
Cc1ccc(-c2cc(C(=O)NC(C)(C)C)cc(-n3cnnc3C(C)C)c2)cc1 [Example 33, N-tert-Butyl-3-(4-methyl-phenyl)-5-(3-propan-2-yl-1,2,4-triazol-4-yl)-benzamide]	100	100
CC(C)(C)NC(=O)c1cc(-c2ccc(F)cc2)cc(-n2cnnc2C(C)(C)C)c1 [Example 8, N-tert-Butyl-3-(3-tert-butyl-1,2,4-triazol-4-yl)-5-(4-fluorophenyl)-benzamide]	190	279
CC(C)c1nncn1-c1cc(C(=O)NC(C)(C)CO)cc(-c2ccc(Cl)cc2)c1 [Example 21, 3-(4-Chlorophenyl)-N-(1-hydroxy-2-methylpropan-2-yl)-5-(3-propan-2-yl-1,2,4-triazol-4-yl)-benzamide]	230	180
